Earlier results as cited in patent US11839654B2, “Combination therapy” (Eli Lilly and Company, priority 2018, dated 2023).

Assays:
JNPL3 tau mouse model = details: Yuzwa et al. 2012; cited from earlier work
Tg4510 tau mouse model = details: Graham et al. 2014; cited from earlier work

## CCN=C1N[C@@H]2[C@@H](O)[C@H](O)[C@@H](CO)O[C@@H]2S1 [Thiamet-G]
JNPL3 tau mouse model
  effect on motor neuron loss: slowing motor neuron loss
Tg4510 tau mouse model
  effect on tau pathology and dystrophic neurites: reduction in tau pathology and dystrophic neurites
